Here are results for 30 molecules from patent publication US9067871B2, “Aminotetraline derivatives, pharmaceutical compositions containing them, and their use in therapy” (ABBVIE DEUTSCHLAND GMBH & CO KG, priority 2009, dated 2015).

Where a name gives a salt, the structure may show the parent alone. Where only a bound is given, the exact number is not on record here.

human GlyT1c transporter, sequence (P48067 whole entry): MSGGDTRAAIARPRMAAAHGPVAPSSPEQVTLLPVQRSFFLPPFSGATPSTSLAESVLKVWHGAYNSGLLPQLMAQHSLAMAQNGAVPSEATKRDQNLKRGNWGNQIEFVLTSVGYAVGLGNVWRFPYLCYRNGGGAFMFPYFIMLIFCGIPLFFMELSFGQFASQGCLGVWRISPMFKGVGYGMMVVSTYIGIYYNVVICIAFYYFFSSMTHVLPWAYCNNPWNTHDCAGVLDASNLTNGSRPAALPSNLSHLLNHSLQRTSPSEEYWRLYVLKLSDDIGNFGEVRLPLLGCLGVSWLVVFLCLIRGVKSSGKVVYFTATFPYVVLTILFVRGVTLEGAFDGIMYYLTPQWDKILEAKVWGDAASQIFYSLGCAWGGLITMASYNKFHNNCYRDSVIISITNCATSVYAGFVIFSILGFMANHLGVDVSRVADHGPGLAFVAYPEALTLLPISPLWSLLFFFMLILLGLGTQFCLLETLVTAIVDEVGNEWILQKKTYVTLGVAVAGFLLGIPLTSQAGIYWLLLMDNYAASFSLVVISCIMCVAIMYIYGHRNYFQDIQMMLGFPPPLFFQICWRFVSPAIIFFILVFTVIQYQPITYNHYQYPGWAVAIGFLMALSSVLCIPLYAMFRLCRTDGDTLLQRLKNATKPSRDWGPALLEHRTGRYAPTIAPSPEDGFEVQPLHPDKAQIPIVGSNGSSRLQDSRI

This test concerns the target human GlyT1c transporter (Homo sapiens (Human), UniProt P48067). The test can be described thus: Radioligand binding assay using recombinant CHO cell membranes expressing human GlyT1. To be noted: human GlyT1c-expressing CHO cell membranes; read-out: radioligand binding Kiapp. The source says: 2. Radioligand binding assays using recombinant CHO cell membranes expressing human GlyT1: […]
`O=S(=O)(CC1CC1)NCCOc1ccc2c(c1)C(Cc1ccc(Cl)c(Cl)c1)C(N1CCCC1)CC2` (stereo not drawn) [Example 132, C-Cyclopropyl-N-{2-[8-(3,4-dichloro-benzyl)-7-pyrrolidin-1-yl-5,6,7,8-tetrahydronaphthalen-2-yloxy]-ethyl}-methanesulfonamide hydrochloride]: the Ki is at most 100 nM.
The same measure for `Cn1cnc(S(=O)(=O)NCc2ccc3c(c2)C(Cc2ccccc2)C(N2CCCC2=O)CC3)c1` (stereo not drawn) [Example 263, N-{[8-Benzyl-7-(2-oxopyrrolidin-1-yl)-5,6,7,8-tetrahydronaphthalen-2-yl]methyl}-1-methyl-1H-imidazole-4-sulfonamide]: at most 1000 nM; for `Cn1cc(S(=O)(=O)NCCOc2ccc3c(c2)C(Cc2ccccc2Cl)C(N)CC3)cn1` (stereo not drawn) [Example 301, 1-Methyl-1H-pyrazole-4-sulfonic acid {2-[7-amino-8-(2-chloro-benzyl)-5,6,7,8-tetrahydronaphthalen-2-yloxy]-ethyl}-amide hydrochloride]: at most 10 nM; for `NC1CCc2ccc(OCCNS(=O)(=O)c3ccccc3)cc2C1Cc1ccccc1` (stereo not drawn) [Example 99, N-[2-(7-Amino-8-benzyl-5,6,7,8-tetrahydro-naphthalen-2-yloxy)-ethyl]-benzenesulfonamide hydrochloride]: at most 100 nM.
Next, `NC1CCc2ccc(OCCNS(=O)(=O)CC3CC3)cc2C1Cc1cccc(Cl)c1` (stereo not drawn) [Example 288, N-{2-[7-Amino-8-(3-chloro-benzyl)-5,6,7,8-tetrahydro-naphthalen-2-yloxy]-ethyl}-C-cyclopropyl-methanesulfonamide hydrochloride]: at most 10 nM; `CCOC(=O)NC1CCc2ccc(OCCNS(=O)(=O)CC3CC3)cc2C1Cc1cccc(Cl)c1` (stereo not drawn) [Example 287, [1-(3-Chloro-benzyl)-7-(2-cyclopropylmethanesulfonylamino-ethoxy)-1,2,3,4-tetrahydronaphthalen-2-yl]-carbamic acid ethyl ester]: at most 10000 nM; `NC1CCc2ccc(OCCNC(=O)CC3CC3)cc2C1Cc1ccc(Cl)c(Cl)c1` (stereo not drawn) [Example 122, N-(2-{[7-Amino-8-(3,4-dichlorobenzyl)-5,6,7,8-tetrahydronaphthalen-2-yl]oxy}ethyl)-2-cyclopropylacetamide hydrochloride]: at most 10000 nM.
On to `NC1CCc2ccc(OCCNS(=O)(=O)CC3CC3)cc2C1Cc1ccc(Cl)cc1` (stereo not drawn) [Example 128, N-(2-{[7-Amino-8-(4-chlorobenzyl)-5,6,7,8-tetrahydronaphthalen-2-yl]oxy}ethyl)-1-cyclopropylmethanesulfonamide hydrochloride], for which the Ki was at most 100 nM.
The same measure for `CNC1CCc2ccc(OCCNS(=O)(=O)CC3CC3)cc2C1Cc1cc(F)cc(Cl)c1` (stereo not drawn) [Example 158, N-(2-{[8-(3-Chloro-5-fluorobenzyl)-7-(methylamino)-5,6,7,8-tetrahydronaphthalen-2-yl]oxy}ethyl)-1-cyclopropylmethanesulfonamide hydrochloride]: at most 10 nM; for `O=S(=O)(NCc1ccc2c(c1)C(Cc1ccccc1)C(N1CCC1)CC2)c1ccccn1` (single isomer, unassigned; enantiomer 1) [Example 253, Enantiomer 1 of N-{[7-(azetidin-1-yl)-8-benzyl-5,6,7,8-tetrahydronaphthalen-2-yl]methyl}pyridine-2-sulfonamide]: at most 1000 nM.
Next, `Cn1cc(S(=O)(=O)NCc2ccc3c(c2)C(Cc2ccccc2)C(N)CC3)c(C(F)(F)F)n1` (stereo not drawn) [Example 182, N-{[7-Amino-8-benzyl-5,6,7,8-tetrahydronaphthalen-2-yl]methyl}-1-methyl-3-(trifluoromethyl)-1H-pyrazole-4-sulfonamide hydrochloride]: at most 100 nM; `O=S(=O)(CC1CC1)NCCOc1ccc2c(c1)C(Cc1ccccc1)C(N1CCCC1)CC2` (stereo not drawn) [Example 133, N-(2-{[8-Benzyl-7-(pyrrolidin-1-yl)-5,6,7,8-tetrahydronaphthalen-2-yl]oxy}ethyl)-1-cyclopropylmethanesulfonamide hydrochloride]: at most 100 nM; `CNC1CCc2ccc(OCCNS(=O)(=O)CC3CC3)cc2C1Cc1ccccc1` (stereo not drawn) [Example 137, N-(2-{[8-Benzyl-7-(methylamino)-5,6,7,8-tetrahydronaphthalen-2-yl]oxy}ethyl)-1-cyclopropylmethanesulfonamide hydrochloride]: at most 10 nM.
Next, `CNC1CCc2ccc(OCCNS(=O)(=O)CC3CC3)cc2C1Cc1cccc(F)c1` (single isomer, unassigned; enantiomer 1) [Example 240, Enantiomer 1 of 1-cyclopropyl-N-(2-{[8-(3-fluorobenzyl)-7-(methylamino)-5,6,7,8-tetrahydronaphthalen-2-yl]oxy}ethyl)methanesulfonamide hydrochloride]: at most 10 nM.
With `O=S(=O)(CC1CC1)NCCOc1ccc2c(c1)C(Cc1ccccc1)C(N1CCC1)CC2` (single isomer, unassigned; (-)) [Example 143, (−)-N-(2-(7-(azetidin-1-yl)-8-benzyl-5,6,7,8-tetrahydronaphthalen-2-yloxy)ethyl)-1-cyclopropylmethanesulfonamide], the Ki is at most 10 nM.
The same measure for `CCN(CC)C1CCc2ccc(CCCNS(=O)(=O)CC3CC3)cc2C1Cc1ccc(Cl)cc1` (stereo not drawn) [Example 274, N-{3-[8-(4-Chlorobenzyl)-7-(diethylamino)-5,6,7,8-tetrahydronaphthalen-2-yl]propyl}-1-cyclopropylmethanesulfonamide hydrochloride]: at most 100 nM; for `CCCS(=O)(=O)NCCOc1ccc2c(c1)C(Cc1ccccc1Cl)C(N)CC2` (stereo not drawn) [Example 293, Propane-1-sulfonic acid {2-[7-amino-8-(2-chloro-benzyl)-5,6,7,8-tetrahydro-naphthalen-2-yloxy]-ethyl}-amide hydrochloride]: at most 1000 nM.
Next, `Cn1cnc(S(=O)(=O)NCCOc2ccc3c(c2)C(Cc2ccccc2)C(N)CC3)c1` (single isomer, unassigned; enantiomer 1) [Example 238, Enantiomer 1 of N-(2-{[7-amino-8-benzyl-5,6,7,8-tetrahydronaphthalen-2-yl]oxy}ethyl)-1-methyl-1H-imidazole-4-sulfonamide hydrochloride]: at most 10 nM; `CCCS(=O)(=O)N1CC(COc2ccc3c(c2)C(Cc2ccccc2)C(N)CC3)C1` (stereo not drawn) [Example 292, 1-Benzyl-7-[1-(propane-1-sulfonyl)-azetidin-3-ylmethoxy]-1,2,3,4-tetrahydro-naphthalen-2-ylamine hydrochloride]: at most 1000 nM; `NC1CCc2ccc(CNS(=O)(=O)c3cccnc3)cc2C1Cc1ccccc1` (stereo not drawn) [Example 181, N-{[7-Amino-8-benzyl-5,6,7,8-tetrahydronaphthalen-2-yl]methyl}pyridine-3-sulfonamide dihydrochloride]: at most 100 nM.
Take `CCCS(=O)(=O)NCCOc1ccc2c(c1)C(Cc1cccc(Cl)c1)C(N1CCCC1)CC2` (stereo not drawn) [Example 323, Propane-1-sulfonic acid {2-[8-(3-chloro-benzyl)-7-pyrrolidin-1-yl-5,6,7,8-tetrahydronaphthalen-2-yloxy]-ethyl}-amide hydrochloride]: the Ki was at most 1000 nM.
Next, `Cc1cc(CS(=O)(=O)NCCOc2ccc3c(c2)C(Cc2ccc(Cl)c(Cl)c2)C(N)CC3)no1` (stereo not drawn) [Example 87, N-{2-[7-Amino-8-(3,4-dichloro-benzyl)-5,6,7,8-tetrahydro-naphthalen-2-yloxy]-ethyl}-C-(5-methyl-isoxazol-3-yl)-methanesulfonamide hydrochloride]: at most 10000 nM.
Turning to `Cn1ccc(S(=O)(=O)NCc2ccc3c(c2)C(Cc2ccccc2)C(N2CCC2)CC3)c1` (stereo not drawn) [Example 251, N-{[7-(Azetidin-1-yl)-8-benzyl-5,6,7,8-tetrahydronaphthalen-2-yl]methyl}-1-methyl-1H-pyrrole-3-sulfonamide trifluoroacetate], the Ki was at most 100 nM.
The same measure for `Cn1cnc(S(=O)(=O)NCc2ccc3c(c2)C(Cc2ccccc2)C(N2CCC2)CC3)c1` (single isomer, unassigned; enantiomer 1) [Example 252, Enantiomer 1 of N-{[7-(azetidin-1-yl)-8-benzyl-5,6,7,8-tetrahydronaphthalen-2-yl]methyl}-1-methyl-1H-imidazole-4-sulfonamide]: at most 10 nM; for `NC1CCc2ccc(OCCNS(=O)(=O)CCC3CC3)cc2C1Cc1ccc(Cl)c(Cl)c1` (stereo not drawn) [Example 125, N-(2-{[7-Amino-8-(3,4-dichlorobenzyl)-5,6,7,8-tetrahydronaphthalen-2-yl]oxy}ethyl)-2-cyclopropylethanesulfonamide hydrochloride]: at most 1000 nM; for `CCCS(=O)(=O)NCCCc1ccc2c(c1)C(Cc1cccc(F)c1)C(N)CC2` (stereo not drawn) [Example 209, N-{3-[7-Amino-8-(3-fluorobenzyl)-5,6,7,8-tetrahydronaphthalen-2-yl]propyl}propane-1-sulfonamide hydrochloride]: at most 100 nM.
Next, `CCNC1CCc2ccc(CCCNS(=O)(=O)CC3CC3)cc2C1Cc1ccc(F)c(F)c1` (stereo not drawn) [Example 226, 1-Cyclopropyl-N-{3-[8-(3,4-difluorobenzyl)-7-(ethylamino)-5,6,7,8-tetrahydronaphthalen-2-yl]propyl}methanesulfonamide trifluoroacetate]: at most 100 nM; `CC(=O)NC1CCc2ccc(CCCNS(=O)(=O)CC3CC3)cc2C1Cc1ccccc1` (stereo not drawn) [Example 216, N-[1-Benzyl-7-(3-{[(cyclopropylmethyl)sulfonyl]amino}propyl)-1,2,3,4-tetrahydronaphthalen-2-yl]acetamide]: at most 10000 nM.
Next, `CN(CCOc1ccc2c(c1)C(Cc1ccc(Cl)cc1)C(N)CC2)S(=O)(=O)CC1CC1` (stereo not drawn) [Example 129, N-(2-{[7-Amino-8-(4-chlorobenzyl)-5,6,7,8-tetrahydronaphthalen-2-yl]oxy}ethyl)-1-cyclopropyl-N-methylmethanesulfonamide hydrochloride]: at most 10 nM.
Turning to `CC(=O)NC1CCc2ccc(CNS(=O)(=O)c3cn(C)cn3)cc2C1Cc1ccc(F)cc1` (stereo not drawn) [Example 197], the Ki was at most 10000 nM.
